Results taken from patent US20250064799A1, “ORAL FORMULATIONS OF LEVOSIMENDAN FOR TREATING PULMONARY HYPERTENSION WITH HEART FAILURE WITH PRESERVED EJECTION FRACTION” (Tenax Therapeutics, Inc., priority 2021, published 2025).
Several values for one entry are separate records, joined by “and”; a condition that tells them apart may be missing. Equal entries are not always repeated.

Columns and labels:
[1] = tested on: patients with left heart disease; details: in vivo; cited from earlier work
HFpEF patients [2] = details: inhaled 3 times a day for 4 weeks; cited from earlier work
patients with PH-HFpEF = details: in vivo; cited from earlier work
patients with HFpEF = details: long term treatment, 216 patients; cited from earlier work
PH-HFpEF patients [3] = details: after 12 weeks, 52 patients; cited from earlier work
HFpEF patients [4] = details: in vivo; cited from earlier work
[5] = heart failure subjects; cited from earlier work
[6] = OR-1896 plasma concentration, I.V. to oral transition pharmacokinetic study; assay type: in vivo, human; details: individual patients
Source text: FIGS. 6A-6W: Pharmacokinetic Data from the Levosimendan I.V. to Oral Transition Study. […] FIGS. 6D-6U show patient OR-1896 plasma concentrations (ng/ml, y-axis) for each patient in the I.V. to oral transition study. The respective patient number is indicated above each graph. FIG. 6V: Individual Patient Change in 6-minute walk distance (6MWD) at Week 6 (y-axis) by OR-1896 plasma concentration (Week 6) (x-axis). FIG. 6W: Individual Patient Change in Heart Rate (Week 0 to Week 6) (y-axis) by OR-1896 plasma concentration (Week 6) (x-axis).

[7] = tested on: phosphodiesterase-3 (PDE3); details: cited from earlier work
[8] = tested on: whole cardiomyocytes and isolated contractile apparatus preparations; details: cited from earlier work
PDE4 = details: cited from earlier work
PH-HFpEF patients [9] = details: in vivo; cited from earlier work
[10] = tested on: HFpEF, HFrEF, or PH-HFpEF patients; details: empagliflozin alone; cited from earlier work

Compound: CCCNS(=O)(=O)Nc1ncnc(OCCOc2ncc(Br)cn2)c1-c1ccc(Br)cc1 [macitentan]
- hemodynamic parameters (pulmonary vascular resistance, mean pulmonary arterial pressure, pulmonary artery wedge pressure) [1]: no change

Compound: O=NO [sodium nitrite]
- peak oxygen consumption during cardiopulmonary exercise (primary endpoint) and secondary endpoints (HFpEF patients [2]): unable to demonstrate any improvement

Compound: COc1ccccc1Oc1c(NS(=O)(=O)c2ccc(C(C)(C)C)cc2)nc(-c2ncccn2)nc1OCCO [bosentan]
- clinical outcomes versus placebo (patients with PH-HFpEF): worse clinical outcomes
- six minute walk test or echocardiographic evaluation of pulmonary hypertension (patients with PH-HFpEF): no improvements

Compound: CCCc1nn(C)c2c(=O)[nH]c(-c3cc(S(=O)(=O)N4CCN(C)CC4)ccc3OCC)nc12 [sildenafil]
- six-minute walk time, clinical status, or quality of life (patients with HFpEF): failed to improve
- change in mPAP (PH-HFpEF patients [3]): no change

Compound: COC(=O)Nc1c(N)nc(-c2nn(Cc3ccccc3F)c3ncc(F)cc23)nc1N [vericiguat]
- primary endpoints (HFpEF patients [4]): no significant changes

Compound: CC(=O)Nc1ccc(C2=NNC(=O)C[C@H]2C)cc1 [OR-1896, (R)—N-(4-(4-methyl-6-oxo-1,4,5,6-tetraihydropyridazin-3-yl)phenyl) acetamide]
- half-life [5]: 70 to 80 h
- OR-1896 Plasma concentration, Week 6 ([6]; daily 3 mg oral levosimendan): 13.0 ng/mL and 8.44 ng/mL and 4.04 ng/mL and 8.73 ng/mL and 29.0 ng/mL and 8.15 ng/mL and 1.97 ng/mL and 13.4 ng/mL and 34.1 ng/mL and 7.72 ng/mL and 22.9 ng/mL and 16.5 ng/mL and 12.7 ng/mL and 21.9 ng/mL and 12.3 ng/mL and 5.15 ng/mL
- OR-1896 Plasma concentration, Week 4 ([6]; oral levosimendan titration): 8.86 ng/mL and 6.14 ng/mL and 6.28 ng/mL and 1.39 ng/mL and 12.6 ng/mL and 11.6 ng/mL and 32.9 ng/mL and 7.96 ng/mL and 13.1 ng/mL and 6.50 ng/mL and 5.90 ng/mL
- OR-1896 Plasma concentration, Week 8 ([6]; oral levosimendan, patients titrated at Week 6): 3.47 ng/ml and 38.7 ng/ml and 69.9 ng/ml and 2.93 ng/ml and 25.5 ng/ml (2×) and 10.9 ng/ml
- OR-1896 Plasma concentration, Week 0 ([6]; weekly I.V. levosimendan): 4.46 ng/mL and 2.22 ng/mL and 0.730 ng/mL and 0.197 ng/mL and 12.2 ng/mL and 3.16 ng/mL and 0.787 ng/mL and 6.89 ng/mL and 36.1 ng/mL and 2.11 ng/mL and 0.00 ng/mL and 6.32 ng/mL and 2.81 ng/mL and 4.86 ng/mL and 3.77 ng/mL and 1.19 ng/mL
- potency in inhibition of PDE3 relative to levosimendan [7]: profoundly less potent
- inotropic effects relative to levosimendan [8]: equipotent
- potency in inhibition of PDE4 relative to levosimendan (PDE4): profoundly less potent

Compound: COC(=O)N(C)c1c(N)nc(-c2nn(Cc3ccccc3F)c3ncccc23)nc1N [riociguat]
- mean pulmonary arterial pressure (primary outcome) (PH-HFpEF patients [9]): primary outcome was not achieved

Compound: OC[C@H]1O[C@@H](c2ccc(Cl)c(Cc3ccc(O[C@H]4CCOC4)cc3)c2)[C@H](O)[C@@H](O)[C@@H]1O [empagliflozin]
- change in exercise capacity as measured by 6MWD [10]: did not demonstrate a material change
